One series is described as follows: physchem. As to conditions: USP phosphate buffer (pH 6.8), pH 6.8, aqueous buffer, kinetic from dmso stock.
A short description of series [1]: Solubility test with polymers (Example 24). As to conditions: USP phosphate buffer (pH 6.8), pH 6.8, aqueous buffer, kinetic from dmso stock, after 5 min.

Molecules are shown by their SMILES. In brackets after ≈: the same amount, converted by molar mass.

For `CNC(=O)c1ccc(N2C(=S)N(c3ccc(C#N)c(C(F)(F)F)c3)C(=O)C2(C)C)cc1F` [enzalutamide, 4-{3-[4-cyano-3-(trifluoromethyl)phenyl]-5,5-dimethyl-4-oxo-2-sulfanylideneimidazolidin-1-yl}-2-fluoro-N-methylbenzamide], the solubility at 5 min was 31.1 µg/mL (≈ 67 µM) in “physchem”; 47.4 µg/mL (≈ 102 µM) in series [1] (with copolyvidone); 42.7 µg/mL (≈ 91.9 µM) in series [1] (with hydroxypropylmethylcellulose 2910 (TC-5E)); 39.2 µg/mL (≈ 84.4 µM) in series [1] (with hydroxypropylmethylcellulose 2910 (TC-5R)); 40.1 µg/mL (≈ 86.3 µM) in series [1] (with polyvinylpyrrolidone); 29 µg/mL (≈ 62.4 µM) in series [1] (without polymer).

As usually defined, the solubility is the concentration that dissolves in the medium under given conditions. A higher solubility goes with a readily soluble substance.

Values taken from US20230122911A1, “FORMULATIONS OF ENZALUTAMIDE” (Astellas Pharma Inc., priority 2012, published 2023).
